Test results: article PMC8989888, “Development of optimized drug-like small molecule inhibitors of the SARS-CoV-2 3CL protease for treatment of COVID-19” (Nature Communications, 2022)
Read-outs that look alike come from different tables or passages of the source.

Target: SARS-CoV-2 3CL protease (Severe acute respiratory syndrome coronavirus 2, UniProt P0DTD1)
Assay type: biochemical
Parameters: Avg: unit not given here
Conditions: for Inhibition at 10 µM: 10 µM compound; for Inhibition at 100 µM: 100 µM compound; for IC50 / LogIC50: Figure S1 and S2
[1] = log of IC50 (µM), dose-response curve fit
[2] = Conc 10 µM, average response of dose-response curve
[3] = Conc 15 µM, average response of dose-response curve
[4] = Conc 20 µM, average response of dose-response curve
[5] = Conc 50 µM, average response of dose-response curve
[6] = Conc 100 µM, average response of dose-response curve
[7] = Conc 200 µM, average response of dose-response curve
[8] = dose-response retest of fragment hits

| Compound | Inhibition at 10 µM [%] | Inhibition at 100 µM [%] | Avg (Conc 10 µM) | Avg (Conc 15 µM) | Avg (Conc 20 µM) | Avg (Conc 50 µM) | Avg (Conc 100 µM) | Avg (Conc 200 µM) | IC50 (dose-response curve fit) [µM] | LogIC50 [1] | Avg [2] | Avg [3] | Avg [4] | Avg [5] | Avg [6] | Avg [7] | IC50 [8] [µM] | LogIC50 (log of IC50 in µM) |
| --- | --- | --- | --- | --- | --- | --- | --- | --- | --- | --- | --- | --- | --- | --- | --- | --- | --- | --- |
| COC(C)(C)CNC(=O)c1cccnc1S [Z1274680193] | 27 | 80 | 27.3 | 54.6 | 67.5 | 90.4 | 80.1 | 60.9 | 14.2 | 1.153 |  |  |  |  |  |  |  |  |
| O=C(NCCC(O)c1ccccc1)c1cccnc1S (stereo not drawn) [Z1275438373] | 13 | 100 | 12.5 | 9.1 | 42.4 | 99.1 | 101.3 | 95.1 | 20.2 | 1.3058 |  |  |  |  |  |  |  |  |
| O=C(NCC(CO)c1ccccc1)c1cccnc1S (stereo not drawn) [Z1346056045] | 2 | 96 | 2.4 | 13.5 | 19.9 | 74.2 | 95.6 | 87.7 | 32.4 | 1.51 |  |  |  |  |  |  |  |  |
| CCNC(=O)N1CCC(NC(=O)c2cccnc2S)C1 (stereo not drawn) [Z1421663935] | 4 | 100 | 3.7 | 20 | 18.3 | 97.3 | 103.3 | 100 | 28 | 1.447 |  |  |  |  |  |  |  |  |
| CCC(=O)N1CCC(NC(=O)c2cccnc2S)C1 (stereo not drawn) [Z1429050837] | 24 | 100 | 24.1 | 26.1 | 20.9 | 87.9 | 102.1 | 100.5 | 42.3 | 1.626 |  |  |  |  |  |  |  |  |
| Cc1nc(CCNC(=O)c2cccnc2S)sc1C [Z1432661577] | 10 | 100 | 10.2 | 5.7 | 26.8 | 103 | 104.1 | 108.4 | 20.8 | 1.319 |  |  |  |  |  |  |  |  |
| COC1(CNC(=O)c2cccnc2S)CCOCC1 [Z1483040147] | 0 | 90 | -6.5 | -1.8 | 13.4 | 61.8 | 90 | 90.2 | 39.7 | 1.599 |  |  |  |  |  |  |  |  |
| Cn1cc(CNC(=O)c2cccnc2S)c(C(F)(F)F)n1 [Z1488388701] | 2 | 100 | 2.1 | 19.8 | 26.9 | 96.9 | 107.8 | 105 | 25.7 | 1.41 |  |  |  |  |  |  |  |  |
| CC(C)Cc1ncc(CNC(=O)c2cccnc2S)s1 [Z1494348106] | 4 | 100 | 3.5 | 37.1 | 49.8 | 100.8 | 102.9 | 93.1 | 18.8 | 1.275 |  |  |  |  |  |  |  |  |
| O=C(NCc1ncccc1F)c1cccnc1S [Z1499268500] | 17 | 100 | 17.2 | 49.3 | 94.7 | 100.1 | 91.4 | 94.2 | 15 | 1.1775 |  |  |  |  |  |  |  |  |
| CC(C)OC1CCC(NC(=O)c2cccnc2S)CC1 (stereo not drawn) [Z1500153099] | 2 | 96 | 2.2 | 13 | 32.4 | 52.9 | 96.3 | 103 | 37.9 | 1.579 |  |  |  |  |  |  |  |  |
| O=C(NCc1ccc(F)c(CO)c1)c1cccnc1S [Z1501229042] | 27 | 100 | 26.5 | 32.3 | 50.8 | 101.4 | 101.9 | 89.2 | 19.9 | 1.299 |  |  |  |  |  |  |  |  |
| O=C(NCC1(O)CCc2ccccc21)c1cccnc1S (stereo not drawn) [Z1501256406] | 55 | 82 | 55.2 | 87.1 | 101.3 | 96.8 | 82.6 | 65.5 |  |  |  |  |  |  |  |  |  |  |
| O=C(NCCC1=CCOCC1)c1cccnc1S [Z1510476385] | 0 | 99 |  |  |  |  |  |  |  |  | 0.1 | 16 | 18.7 | 80.4 | 98.6 | 100.4 | 31.3 | 1.496 |
| Cc1cnccc1CCNC(=O)c1cccnc1S [Z1515958452] | 4 | 100 |  |  |  |  |  |  |  |  | 4 | -6.1 | 25.7 | 93.3 | 101.4 | 97.8 | 20.6 | 1.315 |
| O=C(CCl)N1CCN(c2ccccc2[N+](=O)[O-])CC1 [Z1562119284] | 20 | 90 |  |  |  |  |  |  |  |  | 20 | 20 | 26 | 56.4 | 90 | 97.6 | 44.6 | 1.6496 |
| O=C(CCl)N1CCOC(c2ccc(F)cc2)C1 (stereo not drawn) [Z1562122812] | 31 | 100 |  |  |  |  |  |  |  |  | 31.1 | 36.9 | 59.9 | 101.2 | 96.2 | 101.8 | 18.4 | 1.2639 |
| N#C/C=C/S(=O)(=O)c1ccc(Cl)cc1 [Z1649581806] | 18 | 95 |  |  |  |  |  |  |  |  | 17.8 | 30.7 | 66.2 | 85.5 | 95.1 | 100.5 | 17.8 | 1.251 |
| O=C(CCl)c1ccc2c(c1)CCN(C(=O)C(F)(F)F)C2 [Z1723943157] | 42 | 81 |  |  |  |  |  |  |  |  | 42.1 | 47.7 | 60.7 | 76.3 | 81 | 92.3 | 14.4 | 1.159 |
| Nc1cccnc1S [Z1741977862] | 21 | 100 |  |  |  |  |  |  |  |  | 21.4 | 52.3 | 66.1 | 102.9 | 106.8 | 99.2 | 15.2 | 1.183 |
